Assay results taken from US11642307B2, “Ambrisentan for use in the treatment of acute renal failure” (Noorik Biopharmaceuticals AG, priority 2016, dated 2023).

Legend:
ETB receptor = biological target: T1, ETB receptor (Homo sapiens, UniProt P24530); experiment: Plasma endothelin-1 as measure of ETB receptor blockade in healthy human subjects; assay type: in vivo; settings: Group B (high dose, target 80 and 160 ng/mL)
T1 construct: from tissue; host or cells: living healthy human subjects (in vivo study; plasma endothelin-1 measured)
T1 sequence (P24530 27-442): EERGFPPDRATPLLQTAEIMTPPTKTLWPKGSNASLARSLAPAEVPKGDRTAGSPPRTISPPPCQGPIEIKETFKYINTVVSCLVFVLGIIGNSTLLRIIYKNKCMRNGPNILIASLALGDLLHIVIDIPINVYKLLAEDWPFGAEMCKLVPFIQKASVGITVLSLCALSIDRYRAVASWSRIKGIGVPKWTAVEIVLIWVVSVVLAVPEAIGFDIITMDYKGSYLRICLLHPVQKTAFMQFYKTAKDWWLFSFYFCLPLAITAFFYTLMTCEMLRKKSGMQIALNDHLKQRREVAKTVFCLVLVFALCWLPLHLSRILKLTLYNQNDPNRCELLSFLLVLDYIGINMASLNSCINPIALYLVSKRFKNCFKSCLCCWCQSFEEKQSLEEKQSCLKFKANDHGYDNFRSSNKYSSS
Description: Finally, the effect of the different concentrations of ambrisentan on the ETB receptor blockade was determined by measuring plasma endothelin-1 at different timepoints of the study.

[1] = Stability of ambrisentan liquid compositions; assay type: physicochemical; settings: use of an autoclave
From the text: The liquid compositions of the invention can be prepared using conventional techniques. Typically, the invention pertains to a process for preparing a liquid composition comprising the steps of (a) contacting the endothelin receptor antagonist, preferably ambrisentan, the buffer and the solvent and optionally the excipient and (b) stirring the solution to allow dissolution of the various ingredients, in particular the endothelin receptor antagonist or ambrisentan; and (c) subsequently sterilizing the resulting solution. Step (a) of the process of the invention may comprise of contacting all ingredients at once or it may comprise contacting the ingredients in sequential order, whereby the one or more steps can proceed at the same temperature or at different temperatures. For example, the ingredients that easily dissolve in the solvent at room temperature can be contacted at room temperature first, and subsequently the temperature can be raised, e.g. to 50° C., after which the lowly soluble compounds are added, e.g. the endothelin receptor antagonist such as ambrisentan. Step (b) may proceed until no solid particles can be discerned visually or through analytical techniques. The sterilization of step (c) of the process can be conducted using any sterilization technique known in the art such as filtration and autoclave sterilization. […]

[2] = human studies, ambrisentan 5 and 10 mg/day; cited from earlier work
porcine kidneys = experiment: Reperfusion of porcine kidneys following ischemic injury with endothelin-1 challenge; set-up: species or system Landrace cross female pigs; settings: treated kidneys, ambrisentan 150 μg/l
Description: All experiments were undertaken in accordance with the Home Office animals (Scientific Procedures) Act 1986. Ten kidneys were retrieved from 5 Landrace cross female pigs weighing approximately 50 kg. Two pairs of kidneys underwent 20 minutes of warm ischaemic injury and were then flushed with 500 m1 of UW solution at 4° C. and stored on ice for 18 hours. After 18 hours cold storage, kidneys were prepared and flushed with 100 m1 of Ringer's solution 4° C. with or without liquid composition of Example 1 which is diluted to an ambrisentan concentration of 150 μg/l. They were then left at room temperature for 20 minutes. The remaining three pairs of kidneys were retrieved after 10 minutes of warm ischaemia and stored on ice for 6 hours. They were prepared and flushed as previously described then left at room temperature for 10 minutes before reperfusion.
Kidneys were perfused with 1 liter of diluted whole autologous heparinized blood at 38.0° C. for 6 hours to assess renal function and injury. 1000 μmol/l of creatinine (Sigma-Aldrich) was added to the circuit. In the treated kidneys the ambrisentan-containing liquid composition as described above (150 μg/l) was added to the reperfusion circuit 10 minutes before the start of reperfusion. In the control and treated kidneys after 2 h 50 min of reperfusion, endothelin-1 (Sigma-Aldrich) was added to the arterial line of reperfusion circuit to achieve a concentration of (20 pg/ml). A sample of the perfusate was taken from the renal vein during the post preservation flush. Perfusion data was recorded after 30 minutes of reperfusion then at each hour. Plasma and urine samples were taken pre-reperfusion, 30 minutes after reperfusion, then at hourly time points to measure renal function.

[3] = Raina et al; cited from earlier work
healthy human subjects = experiment: 24-hour intravenous ambrisentan infusion in healthy human subjects: urine output, water balance, free water clearance; assay type: in vivo
Description: A study was performed to determine whether lower concentrations of ambrisentan in blood are less likely to produce renal side effects as those seen with current concentrations achieved with the current commercial presentation of ambrisentan. In this study a liquid composition of ambrisentan at a concentration of 5 mg/mL was administered to 20 healthy human subjects at varying rates of administration in order to achieve different ambrisentan concentrations in blood and over a period of 24 hours. Target concentrations in the low dose group were 20 and 40 ng/mL (Group A) after 4 hours and 16 hours respectively, and 80 and 160 ng/mL in the high dose group (Group B) after 4 hours and 16 hours respectively. […] Steady state for each target concentration was maintained for at least 8 hours prior to increasing the concentration. Ten subjects were assigned to Group A and ten subjects to Group B. Pharmacokinetic and plasma ET-1 samples were collected and analysed at different timepoints for up to 72 hours. Urine was collected for 24 hours and in intervals from 0-2 hours, 2-4 hours, 4-8 hours, 8-12, hours, 12-18 hours and 18-24 hours.
All subjects received a 100 ml/hr infusion of 0.45% physiological solution for 24 hours and ambrisentan was administered in a 250-mL solution of 0.9% of physiological solution over a period of 24 hours. Subjects had free access to water and a normal diet. At a minimum, subjects received through intravenous infusion a total of 2650 mL of water and 223.3 mmol of sodium in the 24-hour period of drug administration.
The effect on urine was consistent throughout the different collection periods of the 24-hour infusion period. Patients in Group A maintained higher urinary output rates throughout the study as compared to Group B. In the Tables Below, Water Balance is the result of subtracting urine volume from intravenous liquid input.
The increase in urine formation (diuresis) was further characterised by determining the effect of ambrisentan on urine composition, specifically urine osmolality.

[4] = time 180 min (endothelin-1 20 pg/ml added after 2 h 50 min)
[5] = time 240 min (after endothelin-1)
[6] = time 300 min (after endothelin-1)
[7] = time 360 min (after endothelin-1)

Compound: COC(c1ccccc1)(c1ccccc1)[C@H](Oc1nc(C)cc(C)n1)C(=O)O [ambrisentan]
- increase in plasma endothelin-1 from baseline (ETB receptor): more than 50%
- stability on autoclave sterilization [1]: can decompose
- plasma levels [2]: exceeding 350 ng/ml
- Oxygen consumption (porcine kidneys; 1 h of reperfusion): 63%
- Oxygen consumption (porcine kidneys; 3 h of reperfusion): 64%
- Oxygen consumption (porcine kidneys; 6 h of reperfusion): 55%
- Renal blood flow (porcine kidneys; time 0 min): 45 ml/min/100 g
- Renal resistance (porcine kidneys; time 0 min): 1.22 mmHg/min/100 g
- Urine flow (porcine kidneys; time 0.5 h): 148 mL
- Renal blood flow (porcine kidneys; time 30 min): 79 ml/min/100 g
- Renal resistance (porcine kidneys; time 30 min): 0.58 mmHg/min/100 g
- Urine flow (porcine kidneys; time 1 h): 124 mL
- Renal blood flow (porcine kidneys; time 60 min): 84 ml/min/100 g
- Renal resistance (porcine kidneys; time 60 min): 0.55 mmHg/min/100 g
- Renal blood flow (porcine kidneys; time 120 min): 85 ml/min/100 g
- Renal resistance (porcine kidneys; time 120 min): 0.56 mmHg/min/100 g
- Urine flow (porcine kidneys; time 2 h): 116 mL
- Urine flow (porcine kidneys; time 3 h): 80 mL
- Renal blood flow (porcine kidneys; [4]): 85 ml/min/100 g
- Renal resistance (porcine kidneys; [4]): 0.60 mmHg/min/100 g
- Urine flow (porcine kidneys; time 4 h): 62 mL
- Renal blood flow (porcine kidneys; [5]): 97 ml/min/100 g
- Renal resistance (porcine kidneys; [5]): 0.56 mmHg/min/100 g
- Urine flow (porcine kidneys; time 5 h): 44 mL
- Renal blood flow (porcine kidneys; [6]): 93 ml/min/100 g
- Renal resistance (porcine kidneys; [6]): 0.62 mmHg/min/100 g
- Renal blood flow (porcine kidneys; [7]): 77 ml/min/100 g
- Renal resistance (porcine kidneys; [7]): 0.78 mmHg/min/100 g
- pharmacokinetic interactions with cyclosporine A and tacrolimus [3]: absence of pharmacokinetic interactions
- Hourly Water Balance, Mean (healthy human subjects; Group A (low dose, target 20 and 40 ng/mL), collection period 0 H to 2 H): -74.58 mL/h
- Hourly Water Balance, Mean (healthy human subjects; Group A (low dose, target 20 and 40 ng/mL), collection period 2 H to 4 H): -76.08 mL/h
- Hourly Water Balance, Mean (healthy human subjects; Group A (low dose, target 20 and 40 ng/mL), collection period 4 H to 8 H): -1.08 mL/h
- Hourly Water Balance, Mean (healthy human subjects; Group A (low dose, target 20 and 40 ng/mL), collection period 8 H to 12 H): -12.58 mL/h
- Hourly Water Balance, Mean (healthy human subjects; Group A (low dose, target 20 and 40 ng/mL), collection period 12 H to 18 H): -13.75 mL/h
- Hourly Water Balance, Mean (healthy human subjects; Group A (low dose, target 20 and 40 ng/mL), collection period 18 H to 24 H): -32.92 mL/h
- Cumulative Water Balance, Mean (healthy human subjects; Group A (low dose, target 20 and 40 ng/mL), end of collection 2 H): -149.17 mL
- Cumulative Water Balance, Mean (healthy human subjects; Group A (low dose, target 20 and 40 ng/mL), end of collection 4 H): -301.33 mL
- Cumulative Water Balance, Mean (healthy human subjects; Group A (low dose, target 20 and 40 ng/mL), end of collection 8 H): -305.67 mL
- Cumulative Water Balance, Mean (healthy human subjects; Group A (low dose, target 20 and 40 ng/mL), end of collection 12 H): -356.00 mL
- Cumulative Water Balance, Mean (healthy human subjects; Group A (low dose, target 20 and 40 ng/mL), end of collection 18 H): -438.50 mL
- Cumulative Water Balance, Mean (healthy human subjects; Group A (low dose, target 20 and 40 ng/mL), end of collection 24 H): -636.00 mL
- Hourly Water Balance, Mean (healthy human subjects; Group B (high dose, target 80 and 160 ng/mL), collection period 0 H to 2 H): -6.33 mL/h
- Hourly Water Balance, Mean (healthy human subjects; Group B (high dose, target 80 and 160 ng/mL), collection period 2 H to 4 H): 11.17 mL/h
- Hourly Water Balance, Mean (healthy human subjects; Group B (high dose, target 80 and 160 ng/mL), collection period 4 H to 8 H): 27.17 mL/h
- Hourly Water Balance, Mean (healthy human subjects; Group B (high dose, target 80 and 160 ng/mL), collection period 8 H to 12 H): 7.17 mL/h
- Hourly Water Balance, Mean (healthy human subjects; Group B (high dose, target 80 and 160 ng/mL), collection period 12 H to 18 H): -10.08 mL/h
- Hourly Water Balance, Mean (healthy human subjects; Group B (high dose, target 80 and 160 ng/mL), collection period 18 H to 24 H): 34.75 mL/h
- Cumulative Water Balance, Mean (healthy human subjects; Group B (high dose, target 80 and 160 ng/mL), end of collection 2 H): -12.67 mL
- Cumulative Water Balance, Mean (healthy human subjects; Group B (high dose, target 80 and 160 ng/mL), end of collection 4 H): 9.67 mL
- Cumulative Water Balance, Mean (healthy human subjects; Group B (high dose, target 80 and 160 ng/mL), end of collection 8 H): 118.33 mL
- Cumulative Water Balance, Mean (healthy human subjects; Group B (high dose, target 80 and 160 ng/mL), end of collection 12 H): 147.00 mL
- Cumulative Water Balance, Mean (healthy human subjects; Group B (high dose, target 80 and 160 ng/mL), end of collection 18 H): 86.50 mL
- Cumulative Water Balance, Mean (healthy human subjects; Group B (high dose, target 80 and 160 ng/mL), end of collection 24 H): 295.00 mL
- fluid accumulation (healthy human subjects; ambrisentan concentrations above 100 ng/mL): significant accumulation of fluid through the inability to increase urinary output
- renal effect, fluid retention (healthy human subjects; total ambrisentan lower than 100 ng/mL): have less of an effect on fluid retention
- renal effect, fluid retention (healthy human subjects; total ambrisentan of about 100 ng/mL and higher): show an adverse renal effect by promoting fluid retention
